Experimental findings from PMC11945486, “TAS1R2/TAS1R3 Single-Nucleotide Polymorphisms Affect Sweet Taste Receptor Activation by Sweeteners: The SWEET Project” (Nutrients, 2025) are described below.

In this experiment the target is T1, human TAS1R2-I486V (subunit alone) (Homo sapiens, UniProt Q8TE23, I486V).
T1 construct: expressed in transfected cells; host or cells: HEK293T-Gα16gust44
T1 sequence (Q8TE23 20-839 I486V): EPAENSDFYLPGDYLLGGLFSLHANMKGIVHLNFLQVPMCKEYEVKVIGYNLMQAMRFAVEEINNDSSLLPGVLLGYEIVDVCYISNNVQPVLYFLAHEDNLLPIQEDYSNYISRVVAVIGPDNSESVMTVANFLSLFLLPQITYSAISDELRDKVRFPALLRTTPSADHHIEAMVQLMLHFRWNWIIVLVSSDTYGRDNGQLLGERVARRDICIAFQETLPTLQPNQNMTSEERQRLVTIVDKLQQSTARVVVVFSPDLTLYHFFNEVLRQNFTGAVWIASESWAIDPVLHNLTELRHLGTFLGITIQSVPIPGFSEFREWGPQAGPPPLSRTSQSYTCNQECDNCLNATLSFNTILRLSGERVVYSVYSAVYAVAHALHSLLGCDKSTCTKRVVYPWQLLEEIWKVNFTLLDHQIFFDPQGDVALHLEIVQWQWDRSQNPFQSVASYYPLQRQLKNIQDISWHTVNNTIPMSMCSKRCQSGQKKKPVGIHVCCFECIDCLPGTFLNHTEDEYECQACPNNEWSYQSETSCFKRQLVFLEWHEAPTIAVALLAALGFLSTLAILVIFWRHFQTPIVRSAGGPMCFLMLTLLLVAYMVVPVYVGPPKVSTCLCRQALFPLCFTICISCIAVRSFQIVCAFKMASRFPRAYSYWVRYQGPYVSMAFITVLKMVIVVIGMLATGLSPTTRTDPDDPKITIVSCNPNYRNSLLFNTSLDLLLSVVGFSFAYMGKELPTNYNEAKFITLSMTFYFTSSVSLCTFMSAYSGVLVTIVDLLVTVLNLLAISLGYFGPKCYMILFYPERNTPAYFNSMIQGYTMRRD
As to the kind of experiment: Calcium mobilisation assay, TAS1R2-I486V subunit alone. The class given is cell-based. The source says: The coding sequences for TAS1R2 and TAS1R3 were commercially synthesised, and the human codon was optimised for expression in human cells. The coding sequences of human TAS1R2 and TAS1R3 were subcloned and inserted into the mammalian expression vectors pcDNA6/myc-HisA and pcDNA4/myc-HisA (Invitrogen; Thermo Fisher Scientific; Illkirch, France) between the EcoRI and NotI restriction sites, generating the plasmids pcDNA6-TAS1R2 and pcDNA4-TAS1R3, respectively. To increase protein expression in mammalian cells, an upstream start codon was used, which was a sequence called MAX, corresponding to the QBI SP163 element also described in pcDNA4-HisMax (Invitrogen; Thermo Fisher Scientific; Illkirch, France). To measure the expression level of the receptor by immunohistochemistry, we used the FLAG sequence ([…]) in the C-terminal position, which encodes the FLAG tag epitope. […]
The HEK293T cells were kindly provided by Jay P. Slack (Givaudan Flavors Corporation; Cincinnati, OH, USA). […] The fluorescence intensity was measured for 90 s (excitation 488 nm, emission 510 nm) in an automated fluorometric FlexStation®3 Multi-Mode microplate reader (Molecular Devices; San Jose, CA, USA). […] The Ca^2+ changes were expressed as fractional changes in fluorescent light intensity: ΔF/F = (F − F0)/F0, where F was the fluorescent light intensity at each point, and F0 was the value of emitted fluorescent light prior to stimulus application. To calculate dose–response relationships, the changes in fluorescence upon stimulus application were averaged, mock-subtracted and baseline-corrected. […] The half-maximal effective concentrations (EC50 values) and maximal signal amplitudes were calculated using SigmaPlot software (version 15.0) (Systat Software; San Jose, CA, USA).
For in vitro calcium mobilisation assay performed on hTAS1R2-SNPs, hTAS1R3-SNPs and mTAS1R3-I60T, 6 to 7 concentrations were tested for each sweet compound, plus buffer alone. All concentration–receptor combinations were measured in duplicate, and each experiment was repeated at least 4 times (8 wells/concentration). […]
Background: A change in cytosolic calcium serves as a functional read-out for many receptors and channels.

As to `C=C(C)[C@@H]1CC=C(/C=N/O)CC1` [Perillartine, perillartine], the EC50 (usually the midpoint of the concentration-response curve) was determined as 124 ± 14.1 µM and the “R1 = Variant EC50/WT EC50” value amounted to 1.4. In addition, for the setting “maximal signal amplitude”, the “Max ΔF/F0” value worked out at 0.39 ± 0.02.
